Measurements from patent US6544541B1, “Devices and compounds for treating arterial restenosis” (Cardiovascular Solutions, Inc., priority 1999, dated 2003).

Key:
H4IIE hepatoma cells [1] = test: DNA synthesis (3H-thymidine incorporation) in H4IIE cells; format: cell-based; settings: H4IIE cells
Method: Incorporation of uridine or thymidine was used to define the change in rate of […] synthesis, respectively, in response to a mitogen such as insulin. Specifically, quiescent H4IIE cells were prepared by placing the cultures (in 24-well dishes) into serum-free a-minimal essential medium for 3 days. It is of note that the normal growth media for H4IIE cells is α-MEM containing 10% fetal bovine serum (FBS). After reaching quiescence, the cells were stimulated with 1 μM insulin and incubated for either 6 hours or 24 hours in the presence of 1 μCi/ml ^3H-uridine or ^3H-thymidine, respectively. Cells were subsequently lysed with detergent and the nucleic acids precipitated with 5% trichloroacetic acid. The precipitated material was collected on glass fibre filters and the radioactive content measured by scintillation counting. […] Furthermore, while complete inhibition of DNA synthesis by MIBG is obtained at approximately 20 μM, higher concentrations decrease basal DNA synthesis below control levels.

[2] = system: porcine coronary artery smooth muscle cells
[3] = system: smooth muscle cells derived from human arterial conduits; test: DNA synthesis and cytotoxicity in human smooth muscle cells; settings: human cells; FIG. 26B
[4] = system: porcine coronary arteries; test: coronary artery organ culture after balloon angioplasty (neointimal index); settings: organ culture, relative to MIBG; FIG. 24
From the text: Although smooth muscle cell cultures can be used to determine the ability of a compound to inhibit proliferation, these cells are not good indicators of a compound's ability to prevent restenosis. This statement stems from the fact that several processes, including cell migration, proliferation and synthesis of ECM degrading enzymes, must be coordinately activated in order for restenosis to occur. A novel organ culture system has therefore been developed in order to test the effectiveness of MIBG and other compounds at preventing restenosis (Wilson et al, 1999, Cardiac Res 42: 761-772). In brief, hearts are transported from the abattoir to the laboratory on ice. The left descending coronary artery is exposed and a balloon catheter is inserted past the first bifurcation. The balloon is inflated, and after 1 minute is deflated and withdrawn. The damaged region (approximately 20 mm in length) is excised, cut into 4 pieces of 5 mm and each piece is placed into an individual well of a culture dish. These segments can be maintained in media containing 20% serum for up to 21 days. Upon harvest of the tissue, typically after 14 days, the vessel segments are placed into resin for histological analysis. Sections are prepared from vessel segments after removal of the first 1.5 mm. […] This file is imported into SigmaScan™, and staining in the areas of the intimal and medial layers quantified. […]

smooth muscle cells = test: Boyden chamber smooth muscle cell migration in response to Angiotensin II; format: cell-based; settings: 20 μM; 10 μM Angiotensin II in lower compartment; FIG. 17
Method: Specifically, smooth muscle cells were seeded into the upper chamber of a Boyden chamber, which consists of two compartments that are separated by a permeable membrane. […] Specifically, migration to the lower compartment was determined by counting cells on the underside of the membrane. Data are presented as means ± standard error for six independent determinations.

[5] = human studies; cited from earlier work
porcine femoral artery = test: balloon angioplasty of the porcine femoral artery in vivo; parameters: species or system pigs; settings: in vivo femoral angioplasty, relative to MIBG; FIG. 25
From the text: To test the effectiveness of MIBG under in vivo conditions, this compound was applied to the femoral artery after balloon angioplasty. This model provided a means of testing both MIBG and the method of application. Specifically, male castrated farm pigs (25-30 kg) were anaesthetized and maintained on isoflurane throughout the procedure. With the pig in a supine position, the left femoral artery was exposed from the bifurcation of the femoral and superficial femoral arteries to the point of insertion of the femoral artery into the groin. A mixture of nitroglycerin and papaverine was applied to the vessel and the area was covered with a saline-soaked sponge to keep the tissues moist. The right femoral artery was also exposed, treated and covered with a sponge. The left femoral was then clamped at both groin insertion (proximal) and bifurcation (distal) points, and an arteriotomy made at the bifurcation. The balloon (6.0×20 mm) was inserted through the arteriotomy in a retrograde manner (i.e. toward the groin) to a position 20 mm from the arteriotomy and the proximal clamp removed. The balloon was inflated for 1 minute, deflated and carefully removed, and the arteriotomy was closed with 6.0 ProleneTM suture. MIBG in combination with a biocompatible glue, in this example, Tisseel®, was applied to the surface of the vessel extending from the arteriotomy to the proximal region past the site of balloon inflation. The fibrin glue ensured that MIBG slowly diffused into the vessel. Furthermore, the fibrin glue helps to retain MIBG at the site for several days. The right femoral was handled as described above. […] The extent of restenosis was subsequently monitored by morphometry. […] Digital images were captured with a DAGE-MTI CCD camera and analyzed with SigmaScan Software. The neointimal and medial areas are quantified and used to calculate the neointimal index: neointimal area/medial area. […] Even though the vehicle cannot be detected after 14 days, we conclude that it remains for the minimum period necessary.

cell growth = settings: cited from earlier work
[6] = system: Friend erythroleukemia cells; test: Friend cell differentiation; format: cell-based
From the text: It is of note however that MIBG acts at a point in the differentiation pathway that is distinct from 3-aminobenzamide.

H4IIE cells = test: lactate dehydrogenase (LDH) release toxicity assay; format: cell-based; settings: 96 hours; FIG. 5
Method: To address the issue of MIBG toxicity, lactate dehydrogenase (LDH) release was measured after incubation with MIBG or MIBA. Quiescent H4IIE cells were prepared in 96-well dishes and treated with various concentrations of either MIBG or MIBA for 96 hours. To quantify the release of LDH from the cells, which only occurs if the cells are damaged or killed by the treatment, 100 μl of culture medium was transferred to a fresh dish. To this was added 100 μl of dye/catalyst mixture (Boehringer Mannheim cytotoxicity detection kitTM), and the samples were subsequently incubated for 30 minutes at 37° C. Absorbance of the solution was monitored at 490 nm. The colour intensity indicates the relative LDH content in the test samples. […] As a consequence, it is speculated that changes in LDH release may be coupled to non-toxic and reversible alterations in mitochondrial metabolism or membrane integrity as a result of MIBG treatment.

H4IIE hepatoma cells [7] = test: flow cytometry, bromodeoxyuridine incorporation in proliferating cells; format: cell-based; settings: 25 μM MIBG, 48 hours; FIG. 4
Method: Additional verification that MIBG blocked cell proliferation was obtained using flow cytometry analysis. Proliferating H4IIE cells (<40% confluent) were incubated for 48 hours in the presence or absence (untreated control or containing MIBA) of 25 μM MIBG. The cells were pulse labeled with bromodeoxyuridine (BrdU) 2 hours before harvest to label replicating DNA. Cells were released by trypsinization, collected by centrifugation and permeabilized with Triton X-100 (1%). Replicated DNA was labeled with an anti-BrdU antibody conjugated to FITC (fluorescein isothiocyanate), while total DNA was labeled with propidium iodide. The FITC and propidium iodide labels were detected at 514 nm and 600 nm, respectively, with a Coulter flow cytometer™ (excitation wavelength 488 nm), and number of cells containing these fluors were quantified. The data were plotted as cells with propidium iodide versus cells with BrdU. […] To summarize, the results described above indicate that MIBG is a potent inhibitor of cell proliferation. Furthermore, the cellular process affected by MIBG is active throughout the cell cycle. This conclusion is based on the fact that there is no accumulation of cells at a specific phase of the cell cycle. In addition, it is of note that there is no apparent decrease in cell number or an increase in smaller cells, both characteristics of cell death.

Question: For benzylguanidine [BG], which “inhibition of DNA synthesis (thymidine incorporation)” value (H4IIE hepatoma cells [1]) is on record?
Answer: The value was “did not inhibit thymidine incorporation”.

Question: And the “inhibition of thymidine incorporation” value [2]?
Answer: Its value is “did not inhibit thymidine incorporation”.

Question: Which results are given for `CC(C=NNC(=N)N)=NNC(=N)N` [methylGAG, methylglyoxal bis-(guanylhydrazone)]?
Answer: effectiveness in preventing cell growth (H4IIE hepatoma cells [1]; relative to MIBG): as effective as MIBG; toxicity relative to MIBG [3]: less toxicity; inhibition of thymidine incorporation, potency relative to MIBG [2]: slightly more potent inhibitor than MIBG; toxicity relative to MIBG [2]: less toxicity; effectiveness in preventing cell growth ([2]; smooth muscle cells, relative to MIBG): as effective as MIBG; effectiveness in preventing neointimal formation [4]: as effective as MIBG; smooth muscle cell migration (smooth muscle cells): inhibited smooth muscle cell migration; threshold of tolerance relative to MIBG [5]: higher threshold of tolerance; effectiveness in preventing neointimal formation (porcine femoral artery): as effective as MIBG

Question: Which “concentrations at which cell growth is inhibited” value (cell growth) does the source give for `NC(=O)c1cccc(N)c1` [3-aminobenzamide] here?
Answer: Its value is ≥ 1 mM.

Question: And the “effect on Friend cell differentiation” value [6]?
Answer: The value was “inhibits the commitment phase”.

Question: Which “inhibition of DNA synthesis in response to serum treatment” value [2] does the source give for `N=C(N)NCCCCN` [agmatine] here?
Answer: The value was “does not inhibit DNA synthesis”.

Question: With `NCc1cccc(I)c1` [MIBA, meta-iodobenzylamine] as the compound, how does the “inhibition of DNA synthesis (thymidine incorporation)” value (H4IIE hepatoma cells [1]) read?
Answer: Its value is “does not inhibit DNA synthesis”.

Question: What about the “concentration at which increased LDH release is detectable” value (H4IIE cells) of the same compound?
Answer: Its value is ≥ 200 µM.

Question: And the “bromodeoxyuridine incorporation (DNA synthesis)” value (H4IIE hepatoma cells [7])?
Answer: Its value is “identical to those observed in the control cells”.
